Earlier results in patent US20170368087A1, “PHARMACEUTICAL COMPOSITION COMPRISING TOPIRAMATE” (INNOVACO PHARMACEUTICALS, INC., priority 2014, published 2017).

solubility in acetone, dimethyl sulfoxide, ethanol, and alkaline solutions containing sodium hydroxide or sodium phosphate: freely soluble | solubility in water (room temperature): approximately 9.8 mg/mL
SMILES: CC1(C)O[C@@H]2[C@@H](CO[C@@]3(COS(N)(=O)=O)OC(C)(C)O[C@@H]23)O1 [Topiramate, 2,3:4,5-Di-O-isopropylidene-β-D-fructo-pyranose sulfamate]
